Measurements as given in ChEMBL document CHEMBL1938368, “Structure-activity relationship of naphthaldehydethiosemicarbazones in melanogenesis inhibition” (Bioorg Med Chem Lett, 2012).

Assays:
B16 [1] = assay: Antimelanogenic activity at alpha-MSH-stimulated mouse melanoma B16 cells after 3 days by spectrophotometry; assay type: functional, cell-based; conditions: B16, 72 h
B16 [2] = assay: Antimelanogenic activity at alpha-MSH-stimulated mouse melanoma B16 cells at 10 uM after 3 days by spectrophotometry; assay type: functional; conditions: B16, 72 h

Compound | IC50 (B16 [1]) | inhibition at 10 µM (B16 [2])
Cc1ccc(NC(=S)N/N=C/c2cccc3ccccc23)cc1 | 0.58 µM | > 100%
COc1ccc(NC(=S)N/N=C/c2cccc3ccccc23)cc1 | 0.86 µM | > 100%
Cc1cccc(NC(=S)N/N=C/c2cccc3ccccc23)c1 | 0.45 µM | > 100%
COc1cccc(NC(=S)N/N=C/c2cccc3ccccc23)c1 | 0.83 µM | > 100%
Cc1ccccc1NC(=S)N/N=C/c1cccc2ccccc12 | 0.49 µM | > 100%
S=C(NCc1ccccc1)N/N=C/c1cccc2ccccc12 | 0.27 µM | > 100%
CN(C)C(=S)N/N=C/c1cccc2ccccc12 | 0.28 µM | > 100%
CN(/N=C/c1cccc2ccccc12)C(N)=S | 1.6 µM | > 100%
CN(C)C(=S)N(C)/N=C/c1cccc2ccccc12 | 8.6 µM | 76%
NC(=O)N/N=C/c1cccc2ccccc12 | > 100 µM | < 10%

Further compounds by falling IC50 (B16 [1]), results first:

IC50 (B16 [1]) | Compound | inhibition at 10 µM (B16 [2])
2 µM | CNC(=S)N/N=C/c1cccc2ccccc12 | > 100%
1.9 µM | S=C(N/N=C/c1cccc2ccccc12)Nc1ccc(Cl)cc1 | > 100%
1.1 µM | CCNC(=S)N/N=C/c1cccc2ccccc12 | > 100%
0.92 µM | COc1ccccc1NC(=S)N/N=C/c1cccc2ccccc12 | > 100%
0.5 µM | S=C(N/N=C/c1cccc2ccccc12)Nc1ccccc1 | > 100%
0.29 µM | S=C(N/N=C/c1cccc2ccccc12)NC1CCCCC1 | > 100%
